Laboratory results as given in PMC9652379, “Safety evaluations of a synthetic antimicrobial peptide administered intravenously in rats and dogs” (Scientific Reports, 2022).
Positions of bridges follow the written chain, without caps; N, C: chain ends. Non-standard residues stand in square brackets, D forms with d. Residues, ends and D or L forms follow the SMILES beside them. Chains are numbered I, II in the order given. βAla = NCCC(=O)O

Key:
[1] = Toxicokinetics in rats, 4 weeks daily iv slow bolus; type: in vivo, rat; conditions: for AUC(0-t) / Cmax / tmax: iv
Method: SET-M33 was administered intravenously as a slow bolus to Sprague Dawley rats once daily for 4 weeks at 0 (vehicle only), 5, 9 and 15 mg/kg/day (control group 3 animals/sex, treated groups 6 animals/sex). Blood samples were taken on day 1 and day 28. […] Mean plasma SET-M33 exposure increased in parallel with dose in males and females. […] Mean time to maximum plasma SET-M33 concentration (tmax) was 5 min post-dose for both times and sexes as expected for intravenous bolus administration. […] On day 28, female intermediate dose AUC0-t ratio was 1.7 times the theoretical ratio.
Blood samples were drawn from the retro-orbital sinus under light isoflurane anaesthesia for determination of plasma SET-M33 levels. The samples were taken on days 1 and 28 of treatment at the following times: control group: pre-dose and 30 min; 5, 9 and 15 mg/kg/day-group: pre-dose, 5, 15, 30, 60 min and 24 h after administration. Blood samples were collected into polypropylene test tubes containing lithium heparin anticoagulant and kept at room temperature for no longer than 60 min until centrifuging (1600 g for 10 min at 2–8 °C). The plasma obtained from each sample was transferred to a fresh polypropylene test tubes, immediately frozen in dry ice and stored at − 20 °C ± 5. Plasma concentrations of SET-M33 were measured by a previously validated LC–MS/MS method. Toxicokinetic parameters were determined for mean plasma concentrations at each dose level and time point, according to the validated method and with WinNonlin software, version 6.3, in the Phoenix Suite version 1.3 (Pharsight Corporation, Mountain View, CA, USA).

[2] = in vivo; conditions: dog
Method: Concentrations of SET-M33 in dog plasma samples and the main toxicokinetic parameters were determined. The exposure parameters (AUCt and Cmax) were compared to evaluate dose-dependency, accumulation ratio and sex-related differences. […] Mean SET-M33 plasma levels increased in parallel in males and females. Mean time to maximum SET-M33 concentration (tmax) was after the end of infusion for both periods (days 1 and 7) and sexes, i.e. 30 min post-dose, coherently with intravenous administration. On day 1 and 7, mean AUCt and Cmax values for the low vs. high dose were close to the theoretical ratio of 2.
Blood samples were taken by direct venepuncture of the jugular vein on days 1 and 7 to determine plasma levels of SET-M33. Sampling times were as follows: Day 1: at 0, 5, 15, 30, 60 and 180 min. Day 7: at 0, 5, 15, 30, 60, 180 min and 24 h after administration. Control animals were only bled once on days 1 and 7 of treatment, 1 h after administration. Blood samples were collected into lithium heparin test tubes and kept in an ice bath until centrifuging (1600 g for 10 min at 2–8 °C). The plasma obtained from each sample was transferred to a fresh polypropylenes test tubes, immediately frozen in dry ice and stored at − 20 °C ± 5.

[3] = Dose range finding in rats: toxicokinetics; type: in vivo, rat; conditions: for quantifiable plasma concentrations until, post-dose: rat, in vivo; for mean AUCt ratio, low vs. high dose (theoretical ratio 2) / mean Cmax ratio, low vs. high dose (theoretical ratio 2): rats, 10 vs 20 mg/kg/day iv bolus
Method: SET-M33 concentration was determined after administration by intravenous bolus for 7 days at 10 mg/kg/day and 20 mg/kg/day. Exposure parameters (AUCt and Cmax) were compared in order to evaluate dose-dependency, accumulation ratio and sex-related differences. […] Mean plasma levels of SET-M33 increased in parallel with dose in males and females. Mean time to maximum concentrations (tmax) were observed immediately after administration, 5 min post-dose for both periods (days 1 and 7) and sexes, coherently with intravenous bolus administration.
Blood samples were collected from the retro-orbital plexus of animals under light isoflurane anaesthesia. Blood samples were taken from three males and three females at each extraction time. Sampling times were as follows: Day 1: 5, 15, 30 and 60 min after administration. Day 7: pre-dose and 5, 15, 30, 60 min and 24 h after administration. Control animals were bled only once on days 1 and 7 of treatment at 30 min after treatment. Each blood sample was collected into a polypropylene test tube containing lithium heparin as anticoagulant and kept in an ice bath until centrifuging (1600 g for 10 min at 2–8 °C). The plasma from each sample was transferred to a fresh polypropylene test tube, immediately frozen in dry ice and stored at − 20 °C ± 5.

[4] = female, Sprague Dawley, rat, in vivo, 5 mg/kg/day
[5] = male, Sprague Dawley, rat, in vivo, 5 mg/kg/day
[6] = male, Sprague Dawley, rat, in vivo, 9 mg/kg/day
[7] = male, Sprague Dawley, rat, in vivo, 15 mg/kg/day

**Q.** Which results are given for CC[C@H](C)[C@H](NC(=O)[C@H](CCCCN)NC(=O)[C@@H](N)CCCCN)C(=O)N[C@@H](CCCNC(=N)N)C(=O)N[C@H](C(=O)N[C@@H](CCCNC(=N)N)C(=O)N[C@@H](CC(C)C)C(=O)N[C@@H](CO)C(=O)N[C@@H](C)C(=O)NCCCC[C@H](NC(=O)[C@H](C)NC(=O)[C@H](CO)NC(=O)[C@H](CC(C)C)NC(=O)[C@H](CCCNC(=N)N)NC(=O)[C@@H](NC(=O)[C@H](CCCNC(=N)N)NC(=O)[C@@H](NC(=O)[C@H](CCCCN)NC(=O)[C@@H](N)CCCCN)[C@@H](C)CC)C(C)C)C(=O)NCCCC[C@H](NC(=O)[C@H](CCCCNC(=O)[C@H](C)NC(=O)[C@H](CO)NC(=O)[C@H](CC(C)C)NC(=O)[C@H](CCCNC(=N)N)NC(=O)[C@@H](NC(=O)[C@H](CCCNC(=N)N)NC(=O)[C@@H](NC(=O)[C@H](CCCCN)NC(=O)[C@@H](N)CCCCN)[C@@H](C)CC)C(C)C)NC(=O)[C@H](C)NC(=O)[C@H](CO)NC(=O)[C@H](CC(C)C)NC(=O)[C@H](CCCNC(=N)N)NC(=O)[C@@H](NC(=O)[C@H](CCCNC(=N)N)NC(=O)[C@@H](NC(=O)[C@H](CCCCN)NC(=O)[C@@H](N)CCCCN)[C@@H](C)CC)C(C)C)C(=O)NCCC(=O)O)C(C)C [SET-M33] (I: H-KKIRVRLSAKK[βAla]-OH / II: H-KKIRVRLSAK / III: H-KKIRVRLSA / IV: H-KKIRVRLSA; amide I:10-IV:C, I:11-II:C, II:10-III:C (inferred); N-terminus and C-terminus assumed)?
**A.** AUC(0-t) [1, 4]: 1218 ng·h/mL; Cmax [1, 4]: 4103 ng/mL; AUC(0-t) ([1]; female, Sprague Dawley, rat, in vivo, 5 mg/kg/day, AUC0-t): 663 ng·h/mL; Cmax ([1]; female, Sprague Dawley, rat, in vivo, 5 mg/kg/day, Cmax): 2110 ng/mL; AUC(0-t) [1, 5]: 938 ng·h/mL; Cmax [1, 5]: 3017 ng/mL; tmax [1, 5]: 5 min; AUC(0-t) ([1]; male, Sprague Dawley, rat, in vivo, 5 mg/kg/day, AUC0-t): 692 ng·h/mL; Cmax ([1]; male, Sprague Dawley, rat, in vivo, 5 mg/kg/day, Cmax): 2230 ng/mL; AUC(0-t) [1, 6]: 1819 ng·h/mL; Cmax [1, 6]: 5890 ng/mL; tmax [1, 6]: 5 min; AUC(0-t) ([1]; male, Sprague Dawley, rat, in vivo, 9 mg/kg/day, AUC0-t): 1430 ng·h/mL; Cmax ([1]; male, Sprague Dawley, rat, in vivo, 9 mg/kg/day, Cmax): 4560 ng/mL; AUC(0-t) [1, 7]: 2734 ng·h/mL; Cmax [1, 7]: 8170 ng/mL; tmax [1, 7]: 5 min; AUC(0-t) ([1]; male, Sprague Dawley, rat, in vivo, 15 mg/kg/day, AUC0-t): 2240 ng·h/mL; Cmax ([1]; male, Sprague Dawley, rat, in vivo, 15 mg/kg/day, Cmax): 6040 ng/mL; mean tmax ([1]; rat, in vivo): 5 min; quantifiable plasma concentrations until, post-dose ([1]; rat, in vivo): 1 h; intermediate dose AUC0-t ratio relative to the theoretical ratio ([1]; rat, in vivo, 9 mg/kg/day): 1.7 times; tmax ([1]; rat, in vivo, 5 mg/kg/day): 5 min; tmax ([1]; rat, in vivo, 9 mg/kg/day): 5 min; tmax ([1]; rat, in vivo, 15 mg/kg/day): 5 min; mean AUC0-t ratio, low vs. intermediate dose (theoretical ratio 1.8) ([1]; rats, 5 vs 9 mg/kg/day, day 1): 2; mean Cmax ratio, low vs. intermediate dose (theoretical ratio 1.8) ([1]; rats, 5 vs 9 mg/kg/day, day 1): 1.7–2; mean AUC0-t ratio, low vs. high dose (theoretical ratio 3) ([1]; rats, 5 vs 15 mg/kg/day, day 1): 2.9–3.2; mean Cmax ratio, low vs. high dose (theoretical ratio 3) ([1]; rats, 5 vs 15 mg/kg/day, day 1): 2.7; tmax ([2]; both sexes, beagle, iv): 30 min; quantifiable plasma concentrations until, after the start of infusion ([2]; 8 mg/kg/day): up to 24.5 h; quantifiable plasma concentrations until, post-dose [3]: 1 h; quantifiable plasma concentrations until, post-dose ([3]; iv, 10 mg/kg/day): 0.5 to 1 h; quantifiable plasma concentrations until, post-dose ([3]; iv, 20 mg/kg/day): up to 24 h; mean AUCt ratio, low vs. high dose (theoretical ratio 2) ([3]; day 1): 2.2; mean Cmax ratio, low vs. high dose (theoretical ratio 2) ([3]; day 1): 2.4 to 2.7; mean AUCt ratio, low vs. high dose (theoretical ratio 2) ([3]; day 7): 9.8–14.0; mean Cmax ratio, low vs. high dose (theoretical ratio 2) ([3]; day 7): 2.8–7.2
